Assay: recombinant barcode read abundance after kanamycin selection (control-corrected) (log10(CPM+1)); higher = more efficient recombination; sequences stand for … in AGTGCAGAGAAAATCGGCCAGTTTTCTCTGCCTGCAGTCCGCATGCCGT…AGATTTATGCAGCGGACTGCCTTTCTCCCAAAGTGATAAACCGGACAGTATCATGGACCGGTTTTCCCGGTAATCCGTATTTGCAAGGTTGGTTTCACT; site = the 11-nt target
Method in brief: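 Recombination efficiency was calculated from barcode counts at recombinant junctions, normalized to counts per million, averaged and corrected by the control. Each value is given as log10(CPM+1). The constructs were Gibson-cloned oligos (promoter, target, barcode, J23119-driven first 104 bridge RNA bases) in a vector with the remaining 73 bp and a T7-inducible recombinase, co-electroporated into E. coli with a donor plasmid and plated in duplicate on chloramphenicol/ampicillin LB agar (control) or chloramphenicol/ampicillin/kanamycin with 0.1 mM IPTG.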
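Also: IS621 recombinase and bridge RNA in Escherichia coli cells.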

Sequence | recombinant barcode read abundance (log10)
CTAAGGTCTTGGGTTCTAACCTGTTGCGT (site CTAAGGTCTAA) | 0.31
CTAAGGTCTTGGGTTCTAACCTGTTGCGT (site CTAAGGTCTAC) | 2.69
CTAAGGTCTTGGGTTCTAACCTGTTGCGT (site CTAAGGTCTAG) | 0.209
CTAAGGTCTTGGGTTCTAACCTGTTGCGT (site CTAAGGTCTAT) | 1.9
CTAAGGTCTTGGGTTCTAACCTGTTGCTT (site CTAAGGTCTAA) | 0.462
CTAAGGTCTTGGGTTCTAACCTGTTGCTT (site CTAAGGTCTAC) | 0.132
CTAAGGTCTTGGGTTCTAACCTGTTGCTT (site CTAAGGTCTAG) | 0.186
CTAAGGTCTTGGGTTCTAACCTGTTGCTT (site CTAAGGTCTAT) | 0.886
CTAAGTACTTGGGTTCTAACCTGTTGCAG (site CTAAGTACTCT) | 1.56
CTAAGTACTTGGGTTCTAACCTGTTGCAG (site CTAATTACTTT) | 0.56
CTAATATCTTGGGTTCTAACCTGTTGCAT (site AATGGTCCTTG) | 0.105
CTAATATCTTGGGTTCTAACCTGTTGCAT (site CTAATATCTAT) | 1.26
CTAATCCCTTGGGTTCTAACCTGTTGCAT (site CATATCCCTAT) | 0.0276
CTAATCCCTTGGGTTCTAACCTGTTGCAT (site CTAATCCCTAT) | 1.59
CTAATGGCTTGGGTTCTAACCTGTTGCCT (site CTAATAGCTAG) | 0.176
CTAATGGCTTGGGTTCTAACCTGTTGCCT (site CTAATGGCTAG) | 0.178
CTACAACCTTGGGTTCTAACCTGTTGCAG (site CTACAACCTCT) | 2.02
CTACAACCTTGGGTTCTAACCTGTTGCAG (site TGGACTACTGA) | 0.25
CTACACACTTGGGTTCTAACCTGTTGCTA (site CTACACACTGA) | 0.00924
CTACACACTTGGGTTCTAACCTGTTGCTA (site CTACACACTTA) | 1.91
CTACACCCTTGGGTTCTAACCTGTTGCGA (site CTAAACCCTAC) | 0.0483
CTACACCCTTGGGTTCTAACCTGTTGCGA (site CTACACCCTTC) | 2.39

Sequence | recombinant barcode read abundance (log10)
CTACATCCTTGGGTTCTAACCTGTTGCTT (site CTACAACCTAA) | 0.00817
CTACATCCTTGGGTTCTAACCTGTTGCTT (site CTACACCCTAA) | 0.157
CTACATCCTTGGGTTCTAACCTGTTGCTT (site CTACAGCCTAA) | 0.0896
CTACATCCTTGGGTTCTAACCTGTTGCTT (site CTACATCCTAA) | 1.49
CTACCTACTTGGGTTCTAACCTGTTGCGG (site AATATCTCTTG) | 0.224
CTACCTACTTGGGTTCTAACCTGTTGCGG (site CTACCTACTCC) | 2.72
CTACGAACTTGGGTTCTAACCTGTTGCGG (site CTACGAACTCC) | 2.17
CTACGAACTTGGGTTCTAACCTGTTGCGG (site TGGACCTCTTG) | 0.181
CTACGACCTTGGGTTCTAACCTGTTGCAG (site CTACGACCTCT) | 2.56
CTACGACCTTGGGTTCTAACCTGTTGCAG (site TACGATACTAC) | 0.186
CTACGACCTTGGGTTCTAACCTGTTGCGG (site CTACGACCTCC) | 2.9
CTACGACCTTGGGTTCTAACCTGTTGCGG (site TACAAGTCTAG) | 0.164
CTACGCGCTTGGGTTCTAACCTGTTGCTT (site CTACGCGCTAA) | 0.921
CTACGCGCTTGGGTTCTAACCTGTTGCTT (site GTACGCGCTAC) | 0.309
CTACGGCCTTGGGTTCTAACCTGTTGCGT (site CTACGGCCTAC) | 1.05
CTACGGCCTTGGGTTCTAACCTGTTGCGT (site GGACGGCCTAC) | 0.281
CTAGACTCTTGGGTTCTAACCTGTTGCAC (site CTAGACTCTAT) | 0.626
CTAGACTCTTGGGTTCTAACCTGTTGCAC (site CTAGACTCTCT) | 0.0956
CTAGACTCTTGGGTTCTAACCTGTTGCAC (site CTAGACTCTGT) | 2.77
CTAGACTCTTGGGTTCTAACCTGTTGCAC (site CTAGACTCTTT) | 0.11
CTAGACTCTTGGGTTCTAACCTGTTGCAG (site CTAGACTCTAT) | 0.88
CTAGACTCTTGGGTTCTAACCTGTTGCAG (site CTAGACTCTCT) | 2.42

Sequence | recombinant barcode read abundance (log10)
CTAGACTCTTGGGTTCTAACCTGTTGCAG (site CTAGACTCTGT) | 1.16
CTAGACTCTTGGGTTCTAACCTGTTGCAG (site CTAGACTCTTT) | 0.376
CTAGCGACTTGGGTTCTAACCTGTTGCAC (site AGGAGAGCTAA) | 0.409
CTAGCGACTTGGGTTCTAACCTGTTGCAC (site CTAGCGACTGT) | 1.15
CTAGCGACTTGGGTTCTAACCTGTTGCCG (site ACGCTATCTAA) | 0.102
CTAGCGACTTGGGTTCTAACCTGTTGCCG (site CTAGCGACTCG) | 0.834
CTAGCTCCTTGGGTTCTAACCTGTTGCTT (site CTAGCTCCTAA) | 0.0882
CTAGCTCCTTGGGTTCTAACCTGTTGCTT (site GCTTGGTCTTC) | 0.0776
CTAGGAGCTTGGGTTCTAACCTGTTGCCT (site CTAGGACCTTG) | 0.0183
CTAGGAGCTTGGGTTCTAACCTGTTGCCT (site CTAGGAGCTAG) | 0.148
CTAGGAGCTTGGGTTCTAACCTGTTGCTA (site CTAGGAGCTAA) | 0.137
CTAGGAGCTTGGGTTCTAACCTGTTGCTA (site CTAGGAGCTCA) | 0.231
CTAGGAGCTTGGGTTCTAACCTGTTGCTA (site CTAGGAGCTGA) | 0.0444
CTAGGAGCTTGGGTTCTAACCTGTTGCTA (site CTAGGAGCTTA) | 1.23
CTAGGAGCTTGGGTTCTAACCTGTTGCTG (site CTAGGAGCTAA) | 0.19
CTAGGAGCTTGGGTTCTAACCTGTTGCTG (site CTAGGAGCTCA) | 1.75
CTAGGAGCTTGGGTTCTAACCTGTTGCTG (site CTAGGAGCTGA) | 0.169
CTAGGAGCTTGGGTTCTAACCTGTTGCTG (site CTAGGAGCTTA) | 0.073
CTAGGATCTTGGGTTCTAACCTGTTGCCA (site CTAGGATCTAT) | 0.844
CTAGGATCTTGGGTTCTAACCTGTTGCCA (site CTAGGATCTTG) | 0.24
CTAGGCCCTTGGGTTCTAACCTGTTGCGT (site CTAGGCCCTAA) | 0.361
CTAGGCCCTTGGGTTCTAACCTGTTGCGT (site CTAGGCCCTAC) | 3.3

Reference: the supplement of paper PMC11208160
